Experimental data taken from patent publication US20180271873A1, “METHODS FOR TREATING VIRAL INFECTIONS” (priority 2015, published 2018).

Test system: GFP-expressing Zaire Ebolavirus Mayinga-GFP
Assay: microbe, parasite or virus in culture
Assay type: cell-based
Settings: HeLa, read-out: Activity (Biological activity, EC50)

Structure (SMILES)	EC50
Cc1cccc(/C=N/Nc2cc(N3CCOCC3)nc(OCc3ccccc3)n2)c1 [Compound 47, (E)-4-(2-(Benzyloxy)-6-(2-(3-methylbenzylidene)hydrazinyl)pyrimidin-4-yl)morpholine]	< 1 µM
N#Cc1cccc(/C=N/Nc2cc(N3CCOCC3)nc(OCCc3ccccn3)n2)c1 [Compound 48, (E)-3-((2-(6-Morpholino-2-(2-(pyridin-2-yl)ethoxy)pyrimidin-4-yl)hydrazono)methyl)benzonitrile]	1 to 50 µM
Cc1cccc(/C=N/Nc2cc(N3CCOCC3)nc(OC(C)c3ncccn3)n2)c1 (stereo not shown) [Compound 49, (E)-4-(6-(2-(3-Methylbenzylidene)hydrazinyl)-2-(1-(pyrimidin-2-yl)ethoxy)pyrimidin-4-yl)morpholine]	< 1 µM
Cc1cccc(/C=N/Nc2cc(N3CCOCC3)nc(OCc3nccc(C)n3)n2)c1 [Compound 50, (E)-4-(6-(2-(3-Methylbenzylidene)hydrazinyl)-2-((4-methylpyrimidin-2-yl)methoxy)pyrimidin-4-yl)morpholine]	< 1 µM
Cc1cccc(/C=N/Nc2cc(N3CCOCC3)nc(Oc3ccccc3)n2)c1 [Compound 51, (E)-4-(6-(2-(3-Methylbenzylidene)hydrazinyl)-2-phenoxypyrimidin-4-yl)morpholine]	< 1 µM
Cc1cccc(/C=N/Nc2cc(N3CCOCC3)nc(OCc3ncc(Cl)cn3)n2)c1 [Compound 52, (E)-4-(2-((5-Chloropyrimidin-2-yl)methoxy)-6-(2-(3-methylbenzylidene)hydrazinyl)pyrimidin-4-yl)morpholine]	< 1 µM
Cc1cccc(/C=N/Nc2cc(N3CCOCC3)nc(Oc3ccc4ccccc4c3)n2)c1 [Compound 53, (E)-4-(6-(2-(3-Methylbenzylidene)hydrazinyl)-2-(naphthalen-2-yloxy)pyrimidin-4-yl)morpholine]	< 1 µM
Cc1cccc(/C=N/Nc2cc(N3CCOCC3)nc(OCc3nccc(C(F)(F)F)n3)n2)c1 [Compound 54, (E)-4-(6-(2-(3-Methylbenzylidene)hydrazinyl)-2-((4-(trifluoromethyl)pyrimidin-2-yl)methoxy)pyrimidin-4-yl)morpholine]	< 1 µM
Cc1cccc(/C=N/Nc2cc(N3CCOCC3)nc(Oc3ccc4nc(Cl)ccc4c3)n2)c1 [Compound 55, (E)-4-(2-(2-Chloroquinolin-6-yloxy)-6-(2-(3-methylbenzylidene)hydrazinyl)pyrimidin-4-yl)morpholine]	< 1 µM
Cc1ccc(/C=N/Nc2cc(N3CCOCC3)nc(OCCc3ccccn3)n2)cc1 [Compound 56, (E)-4-(6-(2-(4-Methylbenzylidene)hydrazinyl)-2-(2-(pyridin-2-yl)ethoxy)pyrimidin-4-yl)morpholine]	< 1 µM
Cc1cccc(/C=N/Nc2cc(N3CCOCC3)nc(OCCc3ccc(N4CCOCC4)cn3)n2)c1 [Compound 57]	> 50 µM
Cc1cnc(COc2nc(N/N=C/c3cccc(C)c3)cc(N3CCOCC3)n2)nc1 [Compound 58, (E)-4-(6-(2-(3-Methylbenzylidene)hydrazinyl)-2-((5-methylpyrimidin-2-yl)methoxy)pyrimidin-4-yl)morpholine]	< 1 µM
Cc1cccc(/C=N/Nc2cc(N3CCOCC3)nc(OCc3nc(C)cc(C)n3)n2)c1 [Compound 59, (E)-4-(2-((4,6-Dimethylpyrimidin-2-yl)methoxy)-6-(2-(3-methylbenzylidene)hydrazinyl)pyrimidin-4-yl)morpholine]	< 1 µM
COc1cnc(COc2nc(N/N=C/c3cccc(C)c3)cc(N3CCOCC3)n2)nc1 [Compound 60, (E)-4-(2-((5-Methoxypyrimidin-2-yl)methoxy)-6-(2-(3-methylbenzylidene)hydrazinyl)pyrimidin-4-yl)morpholine]	< 1 µM
CS(=O)(=O)c1cccc(/C=N/Nc2cc(N3CCOCC3)nc(OCCc3ccccn3)n2)c1 [Compound 61, (E)-4-(6-(2-(3-(Methylsulfonyl)benzylidene)hydrazinyl)-2-(2-(pyridin-2-yl)ethoxy)pyrimidin-4-yl)morpholine]	> 50 µM
Cc1cccc(/C=N/Nc2cc(N3CCOCC3)nc(Oc3ccc4nc(C)ccc4c3)n2)c1 [Compound 62, (E)-4-(6-(2-(3-Methylbenzylidene)hydrazinyl)-2-(2-methylquinolin-6-yloxy)pyrimidin-4-yl)morpholine]	< 1 µM
Cc1cccc(/C=N/Nc2cc(N3CCOCC3)nc(Oc3ccc4nccc(Cl)c4c3)n2)c1 [Compound 63, (E)-4-(2-(4-Chloroquinolin-6-yloxy)-6-(2-(3-methylbenzylidene)hydrazinyl)pyrimidin-4-yl)morpholine]	< 1 µM
Cc1cccc(/C=N/Nc2cc(N3CCOCC3)nc(OCc3nc4ccccc4c(=O)[nH]3)n2)c1 [Compound 64, (E)-2-((4-(2-(3-Methylbenzylidene)hydrazinyl)-6-morpholinopyrimidin-2-yloxy)methyl)quinazolin-4(3H)-one]	< 1 µM
CCC(Oc1nc(N/N=C/c2cccc(C)c2)cc(N2CCOCC2)n1)c1ncccn1 (stereo not shown) [Compound 65, (E)-4-(6-(2-(3-Methylbenzylidene)hydrazinyl)-2-(1-(pyrimidin-2-yl)propoxy)pyrimidin-4-yl)morpholine]	< 1 µM
Cc1cccc(/C=N/Nc2cc(N3CCOCC3)nc(Oc3ccc4ncc(Cl)cc4c3)n2)c1 [Compound 66, (E)-4-(2-(3-Chloroquinolin-6-yloxy)-6-(2-(3-methylbenzylidene)hydrazinyl)pyrimidin-4-yl)morpholine]	< 1 µM
Cc1cccc(/C=N/Nc2cc(N3CCOCC3)nc(Oc3ccc4ncc(F)cc4c3)n2)c1 [Compound 67, (E)-4-(2-(3-Fluoroquinolin-6-yloxy)-6-(2-(3-methylbenzylidene)hydrazinyl)pyrimidin-4-yl)morpholine]	< 1 µM
Cc1cccc(/C=N/Nc2cc(N3CCOCC3)nc(Oc3ccc4nccc(C)c4c3)n2)c1 [Compound 68, (E)-4-(6-(2-(3-Methylbenzylidene)hydrazinyl)-2-(4-methylquinolin-6-yloxy)pyrimidin-4-yl)morpholine]	< 1 µM
